Laboratory results reported in patent US12077555B2, “STAT degraders and uses thereof” (Kymera Therapeutics, Inc., priority 2019, dated 2024).

Legend:
[1] = test system: SU-DHL-1 tumor cells; experiment: Xenograph tumor study, SU-DHL-1; type: in vivo, NOD SCID mice; conditions: SUDHL-1 xenograph, 2.5-30 mg/kg, 2 days on/5 days off
Protocol: Animals: 50 6-8 week old female NOD SCID mice weighing 18 to 20 grams. 25 mice were used in each study.
Method for Tumor Inoculation: Each mouse was inoculated subcutaneously with SU-DHL-1 tumor cells (1×107+Matrigel) or SUP-M2 tumor cells (5×106+Matrigel) in 0.1 ml of RPMI1640 medium supplemented with 10% FBS, 100 U/ml penicillin and […] streptomycin for tumor development. Mice were then assigned to groups such that the mean tumor volume was the same for each treatment group and time point. […] Vehicle was 25% HP-β-CD in water adjusted to pH 7.4.
Measurement Parameters: Study animals were monitored not only for tumor growth but also behavior such as mobility, food and water consumption (by cage side checking only), body weight (BW), eye/hair matting and any other abnormal effect. Any mortality and/or abnormal clinical signs was recorded. Sponsor was notified immediately if abnormal clinical signs, or if tolerability issues were observed. Body weights of all animals were measured and recorded twice per week. The measurement of tumor size was conducted twice weekly with a caliper and recorded. The tumor volume (mm3) was estimated using the formula: TV=a×b2/2, where “a” and “b” are long and short diameters of a tumor, respectively.

[2] = target: STAT3 (Homo sapiens, UniProt P40763); experiment: STAT3 HiBiT degradation assay in transfected A549 cells; type: cell-based; set-up: expressed in transfected cells; host or cells: A549; conditions: A549, 24 h; read-out: STAT3 HiBiT A549 degradation 24 h: Average external-Abs DC50
Chain of STAT3 (P40763 whole entry): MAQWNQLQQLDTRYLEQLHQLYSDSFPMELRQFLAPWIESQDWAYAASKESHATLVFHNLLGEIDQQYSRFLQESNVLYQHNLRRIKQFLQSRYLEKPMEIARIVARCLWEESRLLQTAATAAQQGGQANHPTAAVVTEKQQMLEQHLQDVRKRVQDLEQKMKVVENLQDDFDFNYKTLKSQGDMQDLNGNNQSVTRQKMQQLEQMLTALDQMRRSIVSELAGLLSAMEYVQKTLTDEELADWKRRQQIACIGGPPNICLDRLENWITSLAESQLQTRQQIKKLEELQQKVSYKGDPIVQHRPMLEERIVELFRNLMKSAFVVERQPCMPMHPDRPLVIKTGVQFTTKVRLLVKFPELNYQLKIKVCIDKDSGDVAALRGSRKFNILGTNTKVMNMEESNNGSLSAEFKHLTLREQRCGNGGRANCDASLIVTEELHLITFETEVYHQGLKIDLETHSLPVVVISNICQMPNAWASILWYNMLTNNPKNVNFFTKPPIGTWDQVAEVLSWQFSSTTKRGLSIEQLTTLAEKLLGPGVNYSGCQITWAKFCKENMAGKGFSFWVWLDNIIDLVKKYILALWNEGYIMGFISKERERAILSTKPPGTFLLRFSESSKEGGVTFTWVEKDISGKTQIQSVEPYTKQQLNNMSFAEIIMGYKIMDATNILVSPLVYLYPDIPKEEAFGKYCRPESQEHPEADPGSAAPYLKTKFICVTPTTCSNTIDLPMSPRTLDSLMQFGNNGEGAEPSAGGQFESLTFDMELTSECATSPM
In short: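 Transfected A549 cells (~2000/well) plated 24 h, then treated 24 h at 37 °C, 5% CO2 with a 3-fold, 10-point compound dilution. HiBiT lytic luminescence read after 10 min at room temperature; remaining STAT3 normalized to negative and positive controls, four-parameter fit. DC50 binned A <0.01, B 0.01–0.1, C 0.1–1.0, D >1.0 µM.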

SMILES	tumor volume, 5 days ([1]; IP)	tumor volume, 10 days ([1]; IP)	tumor volume, 15 days ([1]; IP)	tumor volume, 20 days ([1]; IP)	DC50 [2] [nM]	tumor volume, 5 days ([1]; IV)	tumor volume, 10 days ([1]; IV)	tumor volume, 15 days ([1]; IV)	tumor volume, 20 days ([1]; IV)
Cn1c(=O)n(C2CCC(=O)NC2=O)c2ccc(C[C@H]3CC[C@@H](CC(=O)N4CC[C@H]5CC[C@@H](C(=O)N[C@@H](CCC(N)=O)C(=O)NCc6ccc(S(C)(=O)=O)cc6)N5C(=O)[C@@H](NC(=O)c5cc6cc(C(=O)P(=O)(O)O)ccc6[nH]5)C4)CC3)cc21 (stereo partly drawn) [Compound I-195, 2-[[(5S,8S,10aR)-8-[[(1S)-3-carbamoyl-1-[[(4-methanesulfonylphenyl)methyl]carbamoyl]propyl]carbamoyl]-6-oxo-3-[2-[(1S,4S)-4-[[1-(2,6-dioxopiperidin-3-yl)-3-methyl-2-oxo-1,3-benzodiazol-5-yl]methyl]cyclohexyl]acetyl]-octahydropyrrolo[1,2-a][1,5]diazocin-5-yl]carbamoyl]-1H-indole-5-carbonylphosphonic acid]	A (A<500 mm^3)	A (A<500 mm^3)	A (A<500 mm^3)	A (A<500 mm^3)	10 to 100				
CC(C)c1ccc(CNC(=O)[C@H](CCC(N)=O)NC(=O)[C@@H]2CC[C@@H]3CCN(C(=O)C[C@H]4CC[C@@H](Cc5ccc6c(c5)n(C)c(=O)n6C5CCC(=O)NC5=O)CC4)C[C@H](NC(=O)c4cc5cc(C(=O)P(=O)(O)O)ccc5[nH]4)C(=O)N32)cc1 (stereo partly drawn) [Compound I-196, 2-[[(5S,8S,10aR)-8-[[(1S)-3-carbamoyl-1-[[(4-isopropylphenyl)methyl]carbamoyl]propyl]carbamoyl]-6-oxo-3-[2-[(1S,4S)-4-[[1-(2,6-dioxopiperidin-3-yl)-3-methyl-2-oxo-1,3-benzodiazol-5-yl]methyl]cyclohexyl]acetyl]-octahydropyrrolo[1,2-a][1,5]diazocin-5-yl]carbamoyl]-1H-indole-5-carbonylphosphonic acid]	A (A<500 mm^3)	A (A<500 mm^3)	A (A<500 mm^3)	A (A<500 mm^3)	10 to 100				
CC(=O)N1CC[C@H]2CC[C@@H](C(=O)N[C@@H](CCC(N)=O)COc3cccc(CCCCC(=O)N[C@H](C(=O)N4C[C@H](O)C[C@H]4C(=O)N[C@@H](C)c4ccc(-c5scnc5C)cc4)C(C)(C)C)c3Cl)N2C(=O)[C@@H](NC(=O)c2cc3cc(C(=O)P(=O)(O)O)ccc3[nH]2)C1 [Compound I-233, diammonium 2-[[(5S,8S,10aR)-3-acetyl-8-[[(2S)-4-carbamoyl-1-[2-chloro-3-(4-[[(2S)-1-[(2S,4R)-4-hydroxy-2-[[(1S)-1-[4-(4-methyl-1,3-thiazol-5-yl)phenyl]ethyl]carbamoyl]pyrrolidin-1-yl]-3,3-dimethyl-1-oxobutan-2-yl]carbamoyl]butyl)phenoxy]butan-2-yl]carbamoyl]-6-oxo-octahydropyrrolo[l,2-a][1,5]diazocin-5-yl]carbamoyl]-1H-indole-5-carbonylphosphonate]					< 10	A (A<500 mm^3)	A (A<500 mm^3)	A (A<500 mm^3)	A (A<500 mm^3)
CC(=O)N1CC[C@H]2CC[C@@H](C(=O)N[C@@H](CCC(N)=O)COc3cccc(CCCC(=O)N[C@H](C(=O)N4C[C@H](O)C[C@H]4C(=O)N[C@@H](C)c4ccc(-c5scnc5C)cc4)C(C)(C)C)c3Cl)N2C(=O)[C@@H](NC(=O)c2cc3cc(C(=O)P(=O)(O)O)ccc3[nH]2)C1 [Compound I-241, diammonium 2-[[(5S,8S,10aR)-3-acetyl-8-[[(2S)-4-carbamoyl-1-[2-chloro-3-(3-[[(2S)-1-[(2S,4R)-4-hydroxy-2-[[(1S)-1-[4-(4-methyl-1,3-thiazol-5-yl)phenyl]ethyl]carbamoyl]pyrrolidin-1-yl]-3,3-dimethyl-1-oxobutan-2-yl]carbamoyl]propyl)henoxy]butan-2-yl]carbamoyl]-6-oxo-octahydropyrrolo[1,2-a][1,5]diazocin-5-yl]carbamoyl]-1H-indole-5-carbonylphosphonate]					< 10	A (A<500 mm^3)	A (A<500 mm^3)	A (A<500 mm^3)	A (A<500 mm^3)
Cc1ncsc1-c1ccc([C@H](C)NC(=O)[C@@H]2C[C@@H](O)CN2C(=O)[C@@H](NC(=O)CCCc2cccc(OC[C@H](CCC(N)=O)NC(=O)[C@@H]3Cc4cccc5c4N3C(=O)[C@@H](NC(=O)c3cc4cc(C(=O)P(=O)(O)O)ccc4[nH]3)CC5)c2F)C(C)(C)C)cc1 [Compound I-261, 2-[[(2S,11S)-2-[[(2S)-4-carbamoyl-1-[2-fluoro-3-(3-[[(2S)-1-[(2S,4R)-4-hydroxy-2-[[(1S)-1-[4-(4-methyl-1,3-thiazol-5-yl)phenyl]ethyl]carbamoyl]pyrrolidin-1-yl]-3,3-dimethyl-1-oxobutan-2-yl]carbamoyl]propyl)phenoxy]butan-2-yl]carbamoyl]-12-oxo-1-azatricyclo[6.4.1.0^[4,13]]trideca-4(13),5,7-trien-11-yl]carbamoyl]-1H-indole-5-carbonylphosphonic acid]	A (A<500 mm^3)	A (A<500 mm^3)	A (A<500 mm^3)	A (A<500 mm^3)	< 10				
CC(=O)N1CC[C@H]2CC[C@@H](C(=O)N[C@@H](CCC(N)=O)COc3cc(C)cc(CCCCCC(=O)N[C@H](C(=O)N4C[C@H](O)C[C@H]4C(=O)N[C@@H](C)c4ccc(-c5scnc5C)cc4)C(C)(C)C)c3F)N2C(=O)[C@@H](NC(=O)c2cc3cc(C(=O)P(=O)(O)O)ccc3[nH]2)C1 [Compound I-262, 2-[[(5S,8S,10aR)-3-acetyl-8-[[(2S)-4-carbamoyl-1-[2-fluoro-3-(5-[[(2S)-1-[(2S,4R)-4-hydroxy-2-[[(1S)-1-[4-(4-methyl-1,3-thiazol-5-yl)phenyl]ethyl]carbamoyl]pyrrolidin-1-yl]-3,3-dimethyl-1-oxobutan-2-yl]carbamoyl]pentyl)-5-methylphenoxy]butan-2-yl]carbamoyl]-6-oxo-octahydropyrrolo[1,2-a][1,5]diazocin-5-yl]carbamoyl]-1H-indole-5-carbonylphosphonic acid]					< 10	A (A<500 mm^3)	A (A<500 mm^3)	A (A<500 mm^3)	A (A<500 mm^3)
